In ChEMBL document CHEMBL4184289, “Design, synthesis and anticancer activities evaluation of novel 5H-dibenzo[b,e]azepine-6,11-dione derivatives containing 1,3,4-oxadiazole units” (Bioorg Med Chem Lett, 2018):
Calls of active or inactive are those of the source. No cut-off for these calls is given here.

How the values were obtained:
OVCAR-3 [1] = assay: Antiproliferative activity against human OVCAR3 cells after 24 hrs by MTT assay; assay type: functional, cell-based
[2] = target: Poly [ADP-ribose] polymerase 1 (Homo sapiens, UniProt P09874); assay: Inhibition of recombinant human GST-tagged PARP1 expressed in Escherichia coli using damaged DNA as substrate after 30 mins in presence of NAD+ by resazurin dye based fluorescence assay
Poly [ADP-ribose] polymerase 1, sequence (P09874 whole entry): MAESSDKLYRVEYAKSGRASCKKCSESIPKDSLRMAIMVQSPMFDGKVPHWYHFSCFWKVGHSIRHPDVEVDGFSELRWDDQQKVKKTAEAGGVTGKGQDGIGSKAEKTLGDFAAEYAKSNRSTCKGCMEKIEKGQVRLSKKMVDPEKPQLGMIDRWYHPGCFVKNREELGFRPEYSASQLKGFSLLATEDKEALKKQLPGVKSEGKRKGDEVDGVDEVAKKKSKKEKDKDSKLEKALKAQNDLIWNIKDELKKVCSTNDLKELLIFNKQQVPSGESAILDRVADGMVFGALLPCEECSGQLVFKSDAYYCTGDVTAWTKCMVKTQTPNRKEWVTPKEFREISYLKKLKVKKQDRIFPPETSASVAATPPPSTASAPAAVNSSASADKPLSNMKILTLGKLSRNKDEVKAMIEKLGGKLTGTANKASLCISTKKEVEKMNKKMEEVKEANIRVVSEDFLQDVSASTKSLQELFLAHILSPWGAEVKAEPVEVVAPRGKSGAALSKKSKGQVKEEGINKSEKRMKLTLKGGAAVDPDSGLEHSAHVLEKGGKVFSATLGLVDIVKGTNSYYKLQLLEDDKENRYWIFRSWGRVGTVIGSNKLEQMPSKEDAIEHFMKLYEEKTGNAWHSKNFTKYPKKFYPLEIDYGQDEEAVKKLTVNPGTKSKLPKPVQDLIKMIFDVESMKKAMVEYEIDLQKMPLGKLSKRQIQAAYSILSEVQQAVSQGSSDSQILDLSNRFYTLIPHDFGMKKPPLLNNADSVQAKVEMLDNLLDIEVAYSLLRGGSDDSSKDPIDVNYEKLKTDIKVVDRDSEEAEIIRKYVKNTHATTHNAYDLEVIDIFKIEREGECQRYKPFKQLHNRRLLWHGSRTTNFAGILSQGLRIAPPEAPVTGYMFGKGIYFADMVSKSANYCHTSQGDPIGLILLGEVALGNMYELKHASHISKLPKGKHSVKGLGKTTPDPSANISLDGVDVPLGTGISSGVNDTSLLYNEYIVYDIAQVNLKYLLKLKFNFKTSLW

OVCAR-3 [3] = assay: Induction of apoptosis in human OVCAR3 cells assessed as downregulation of Bcl2 protein expression at 0.625 to 10 uM after 24 hrs by Western blot method; assay type: functional, cell-based
[4] = Homo sapiens, OVCAR-3, 24 h, read-out: IC50

## CNCc1ccc(-c2[nH]c3cc(F)cc4c3c2CCNC4=O)cc1 [RUCAPARIB]
OVCAR-3 [1]; [4]
  IC50: 3310 nM

## COc1ccc(Br)cc1/C=C/c1nnc(-c2cc(C)cc3c(=O)c4ccccc4c(=O)[nH]c23)o1
OVCAR-3 [1]; ovcar-3
  IC50: Not Active
[2]
  IC50: Not Active

## COc1c(Br)cc(Br)cc1/C=C/c1nnc(-c2cccc3c(=O)c4ccccc4c(=O)[nH]c23)o1
OVCAR-3 [1]; [4]
  IC50: 1400 nM
[2]; read-out: IC50
  IC50: 25 nM
OVCAR-3 [3]
  Activity: Active

## COc1ccccc1/C=C/c1nnc(-c2cc(C)cc3c(=O)c4ccccc4c(=O)[nH]c23)o1
OVCAR-3 [1]; [4]
  IC50: 10700 nM
[2]; read-out: IC50
  IC50: 147 nM

## COc1ccc(Cl)cc1/C=C/c1nnc(-c2cccc3c(=O)c4ccccc4c(=O)[nH]c23)o1
OVCAR-3 [1]; [4]
  IC50: > 100000 nM
[2]; read-out: IC50
  IC50: 1260 nM

## COc1ccc(F)cc1/C=C/c1nnc(-c2cccc3c(=O)c4ccccc4c(=O)[nH]c23)o1
OVCAR-3 [1]; [4]
  IC50: > 100000 nM
[2]; read-out: IC50
  IC50: 951 nM

## COc1ccc(Br)cc1/C=C/c1nnc(-c2cccc3c(=O)c4ccccc4c(=O)[nH]c23)o1
OVCAR-3 [1]; [4]
  IC50: 1660 nM
[2]; read-out: IC50
  IC50: 47 nM
OVCAR-3 [3]
  Activity: Active

## COc1ccc(Cl)cc1/C=C/c1nnc(-c2cc(C)cc3c(=O)c4ccccc4c(=O)[nH]c23)o1
OVCAR-3 [1]; [4]
  IC50: > 100000 nM
[2]; read-out: IC50
  IC50: 1190 nM

## Cc1cc(-c2nnc(-c3ccccc3Cl)o2)c2[nH]c(=O)c3ccccc3c(=O)c2c1
OVCAR-3 [1]; [4]
  IC50: 4190 nM
[2]; read-out: IC50
  IC50: 51 nM

## COc1ccccc1/C=C/c1nnc(-c2cccc3c(=O)c4ccccc4c(=O)[nH]c23)o1
OVCAR-3 [1]; [4]
  IC50: 8990 nM
[2]; read-out: IC50
  IC50: 136 nM

## O=C(NCc1nnc(-c2cccc3c(=O)c4ccccc4c(=O)[nH]c23)o1)c1ccccc1Cl
OVCAR-3 [1]; [4]
  IC50: > 100000 nM
[2]; read-out: IC50
  IC50: 745 nM

## Cc1cc(-c2nnc(CNC(=O)c3ccccc3)o2)c2[nH]c(=O)c3ccccc3c(=O)c2c1
OVCAR-3 [1]; [4]
  IC50: 11400 nM
[2]; read-out: IC50
  IC50: 304 nM

## O=C(NCc1nnc(-c2cccc3c(=O)c4ccccc4c(=O)[nH]c23)o1)c1ccccc1
OVCAR-3 [1]; [4]
  IC50: > 100000 nM
[2]; read-out: IC50
  IC50: 1260 nM

## COc1ccc(F)cc1/C=C/c1nnc(-c2cc(C)cc3c(=O)c4ccccc4c(=O)[nH]c23)o1
OVCAR-3 [1]; [4]
  IC50: > 100000 nM
[2]; read-out: IC50
  IC50: 1050 nM

## COc1c(Br)cc(Br)cc1/C=C/c1nnc(-c2cc(C)cc3c(=O)c4ccccc4c(=O)[nH]c23)o1
OVCAR-3 [1]; ovcar-3
  IC50: Not Active
[2]; read-out: IC50
  IC50: 939 nM

## Cc1cc(-c2nnc(COc3ccccc3)o2)c2[nH]c(=O)c3ccccc3c(=O)c2c1
OVCAR-3 [1]; ovcar-3
  IC50: Not Active
[2]
  IC50: Not Active

## Cc1cc(-c2nnc(-c3ccccc3)o2)c2[nH]c(=O)c3ccccc3c(=O)c2c1
OVCAR-3 [1]; [4]
  IC50: 10100 nM
[2]; read-out: IC50
  IC50: 277 nM

## O=c1[nH]c2c(-c3nnc(COc4ccccc4)o3)cccc2c(=O)c2ccccc12
OVCAR-3 [1]; [4]
  IC50: 6280 nM
[2]; read-out: IC50
  IC50: 99 nM

## O=c1[nH]c2c(-c3nnc(/C=C/c4ccccc4)o3)cccc2c(=O)c2ccccc12
OVCAR-3 [1]; [4]
  IC50: 12100 nM
[2]; read-out: IC50
  IC50: 400 nM

## O=c1[nH]c2c(-c3nnc(-c4ccccc4)o3)cccc2c(=O)c2ccccc12
OVCAR-3 [1]; [4]
  IC50: > 100000 nM
[2]
  IC50: Not Active

## Cc1cc(-c2nnc(/C=C/c3ccccc3)o2)c2[nH]c(=O)c3ccccc3c(=O)c2c1
OVCAR-3 [1]; [4]
  IC50: 17700 nM
[2]; read-out: IC50
  IC50: 446 nM

## Cc1cc(-c2nnc(CNC(=O)c3ccccc3Cl)o2)c2[nH]c(=O)c3ccccc3c(=O)c2c1
OVCAR-3 [1]; ovcar-3
  IC50: Not Active
[2]
  IC50: Not Active

## O=c1[nH]c2c(-c3nnc(-c4ccccc4Cl)o3)cccc2c(=O)c2ccccc12
OVCAR-3 [1]; [4]
  IC50: > 100000 nM
[2]; read-out: IC50
  IC50: 1100 nM
